Values joined by “and” are separate entries in the source; they are usually repeats but may differ in a detail not shown here. Equal values may be shown once. “Also recorded” adds a separate entry of the source. Square brackets hold non-standard residues; d marks the D form. Peptide text beside a SMILES is read from it.
Assays:
[1] = tested on: patients with MCI or mild dementia due to AD; experiment: Adverse events assessment (AE/SAE, MedDRA 23.0), phase 1b trial; settings: 300 mg q.d. oral 28 d
Procedure: During treatment, the frequency of study visits at the trial site was 14 days (Day 1, day 14, Day 28). A last assessment took place at Day 56. At Day 7 and Day 21 additional phone contacts for safety assessments were performed.
For safety assessment during baseline, at Day 14, 28, and 56, laboratory parameters and vital signs were measured, a physical exam was performed, and ECGs were recorded per protocol. […] In addition, nature, frequency, severity, and timing of AEs and SAEs were recorded at day 14, 28, and 56. Standardized AE reports were provided and analysed by the Data Safety and Monitoring Board (DSMB).
Primary endpoints included nature, frequency, severity, and timing of AEs and SAEs; changes in routine laboratory values, ECG, MRI, EEG, and vital signs.

[2] = tested on: patients with MCI or mild dementia due to AD; experiment: CERAD word list learning and recall; format: in vivo, human; design: key to WL Recall (Word list recall test), Mean / WL Recall: words recalled after delay, out of the 10-word list; key to WL learn (CERAD Word list learning), Mean / WL learn: words recalled summed over 3 trials of a 10-word list; settings: for WL Recall / WL learn: individual patient values, PRI-002 group; for WL learn, individual patients: one line per patient
Procedure: The CERAD Word Learning Test is a part of the CERAD cognitive test battery and assesses memory function, particularly for ADe and other dementias[34],[35]. It includes three parts: immediate recall, delayed recall, and recognition. During the test administration, a list of 10 words is read aloud three times, with the participant recalling as many as possible after each trial (immediate recall). After a delay of 5–10 min, they attempt to recall the words again (delayed recall), followed by a recognition task where they identify original words from a mixed list (recognition). The scores from the CERAD Word Learning Test are interpreted using normative data, which consider the participant’s age, gender, and education level. Normal range scores are considered between the 16th and 84th percentiles (z-score -1 to +1). For MCI scores between the 2nd and 15th percentiles (z-score -1 to -2) are expected. For significant cognitive impairment scores below the 2nd percentile (z-score < -2) are considered.

[3] = tested on: patients with MCI or mild dementia due to AD; experiment: Mini-Mental State Examination (MMSE); format: in vivo, human; settings: 300 mg q.d. oral 28 d
From the text: Twenty male and female (not of childbearing potential) patients between 50 and 80 years of age, with a Mini mental state examination (MMSE) score of 22 to 30, CSF biomarkers indicating AD pathology (p-tau >62 pg/ml, total CSF Aβ 1-42/1-40 ratio ≤0.055), a MRI scan in accordance with AD diagnosis not older than 3 months, at least 3 months stable medication prior to screening, were enrolled. Nineteen patients were randomized and data analyzed, one patient dropped out by withdrawal of the informed consent before treatment was initiated. Patients underwent an extensive clinical workup and received a MRI brain scan as well as a lumbar puncture. […] Patients who met any of the following criteria were not eligible for enrollment: History of seizures, stroke or transient ischemic attack, unstable medical, neurological, or psychiatric condition. Current treatment with typical antipsychotic or neuroleptic medication or within 6 months prior to screening. Anticoagulants within 3 months prior to screening, chronic use of opiates or opioids (including long-acting opioid medication) within 3 months prior to screening, stimulant medications (amphetamine, methylphenidate preparations, or modafinil) within 1 month prior to screening and throughout the study, chronic use of benzodiazepines, barbiturates, or hypnotics. […]

[4] = tested on: patients with MCI or mild dementia due to AD; experiment: Other tests of the CERAD+ battery (TMT-A, TMT-B, figure drawing, figure recall, clock, WMS delayed recall); format: in vivo, human; design: Fig Recall (Figure Recall test), mean / Clock (Clock drawing test), mean / WMS delayed recall (Wechsler Memory Scale), mean / Fig Draw (Figure Drawing test), mean / Fig Recall / Clock / WMS delayed recall / Fig Draw: scale not given here; TMT-B (Trail Making Test B), mean / TMT-A / TMT-B: unit not given here; settings: for Clock (Clock drawing test), mean / Fig Draw (Figure Drawing test), mean / Fig Recall (Figure Recall test), mean / TMT-A (Trail Making Test A), mean / TMT-B (Trail Making Test B), mean / WMS delayed recall (Wechsler Memory Scale), mean: 300 mg q.d. oral 28 d; for Clock / Fig Draw / Fig Recall / TMT-A / TMT-B / WMS delayed recall: individual patient values, PRI-002 group
Procedure: (§1) The effect of PRI-002 on cognition and function was tested by the CERAD+ battery and CDR-SB at baseline, Day 28, and Day 56, exploratory endpoints included the change of biomarkers (p-tau, t-tau, Aβ 1-40, Aβ 1-42 and Aβ oligomers) in CSF, blood plasma; change in CERAD+ test battery and CDR-SB scores.

Aβ 1-40, Aβ 1-42 = experiment: CSF Aβ 1-42 and ratio Aβ42/40, Lumipulse immunoassay; format: in vivo, human; settings: Day 28, one line per patient, 300 mg q.d. oral 28 d
Procedure: as §1

## CC(C)C[C@@H](NC(=O)[C@H](NC(=O)[C@H]1CCCN1)[C@H](C)O)C(=O)N[C@H](Cc1c[nH]cn1)C(=O)N[C@@H](C(=O)N[C@H](Cc1c[nH]cn1)C(=O)N[C@H](CC(N)=O)C(=O)N[C@H](CCCNC(=N)N)C(=O)N[C@H](CCCNC(=N)N)C(=O)N[C@H](CCCNC(=N)N)C(=O)N[C@H](CCCNC(=N)N)C(=O)N[C@H](CCCNC(=N)N)C(N)=O)[C@H](C)O [PRI-002] (H-[dP][dT][dL][dH][dT][dH][dN][dR][dR][dR][dR][dR]-NH2; N-terminus and C-terminus assumed)
[1]; n=9
  tolerability: well tolerated
[1]; n=9, Day 1-56
  SAEs or deaths during the trial: No SAEs or deaths; also recorded: No SAEs
[1]; Mild (grade 1), n=9
  AEs probably or possibly related to study treatment, number: 4
[1]; Moderate (grade 2), n=9
  AEs probably or possibly related to study treatment, number: 2
[1]; Severe (grade 3), n=9
  AEs probably or possibly related to study treatment, number: 0
[1]; TOTAL, all grades, n=9
  Gastrointestinal disorders, number of AEs: 1
  Injury, poisoning and procedural complications, number of AEs: 1
  Musculoskeletal and connective tissue disorders, number of AEs: 1
[1]; grade 1 (Mild), n=9
  Gastrointestinal disorders, number of AEs: 1
  Injury, poisoning and procedural complications, number of AEs: 1
  Musculoskeletal and connective tissue disorders, number of AEs: 1
  Nervous system disorders, number of AEs: 5
  Number of subjects with at least one AE: 4
  Psychiatric disorders, number of AEs: 3
  Total number of AEs: 14
[1]; grade 2 (Moderate), n=9
  Nervous system disorders, number of AEs: 2
  Number of subjects with at least one AE: 1
[1]; grade 3 (Severe), n=9
  Number of subjects with at least one AE: 0
  Total number of AEs: 0
[1]; safety population, n=9
  subjects with one or more AEs: 56%
[2]; Day 1
  WL Recall: 3 and 4 and 1 and 5 and 7 and 9
  WL learn: 14 and 10 and 13 and 11 and 20 and 16 and 25
[2]; Day 28 (end of treatment), n=8, 300 mg q.d. oral 28 d
  WL learn (CERAD Word list learning), Mean: 17.3 and 17.25
[2]; Day 28
  WL Recall: 4 and 5 and 0 and 6 and 10 and 7
  WL learn: 15 and 14 and 12 and 16 and 25 and 17
[2]; Day 28, n=8, 300 mg q.d. oral 28 d
  WL Recall (Word list recall test), Mean: 6.0
[2]; Day 28, 300 mg q.d. oral 28 d
  WL learn, individual patients: 16 and 25 (2×) and 17 and 14 (2×) and 15 and 12
[2]; Day 56 (End of Study), n=9, PV 0.036 vs placebo (Wilcoxon), 300 mg q.d. oral 28 d
  WL learn (CERAD Word list learning), Mean: 19.3 and 19.33
[2]; Day 56, P ≤ 0.05, not corrected for multiplicity, 300 mg q.d. oral 28 d
  performance in the CERAD word list versus placebo: significantly better
[2]; Day 56
  WL Recall: 5 and 4 and 3 and 8 and 10
  WL learn: 18 and 16 and 17 and 24 and 30
[2]; Day 56, n=9, 300 mg q.d. oral 28 d
  WL Recall (Word list recall test), Mean: 5.4
[2]; Day 56, 300 mg q.d. oral 28 d
  WL learn, individual patients: 18 (3×) and 24 and 30 and 17 (2×) and 16 (2×)
[2]; Day 56 versus baseline, of 9 patients, 300 mg q.d. oral 28 d
  verum treated patients with improvement of memory function in the CERAD word list test: 9
[2]; day 56, pooled SD, 300 mg q.d. oral 28 d
  Cohen's d effect size, WL learn, PRI-002 vs placebo: 0.94
[2]; one line per patient 1-9, 300 mg q.d. oral 28 d
  Difference WL learn Baseline (day 1) to EoS (day 56), individual patients: 7 and 4 (2×) and 2 and 5 and 1 and 6 and 3 (2×)
[3]; Day 28, n=8
  MMSE, Mean: 27.9
[3]; Day 56, n=9
  MMSE, Mean: 27.2
[4]; Day 1 (baseline), N=9
  Clock (Clock drawing test), mean: 1.7
[4]; Day 1
  Clock: 1.0 and 2.0 and 3.0
  Fig Draw: 11 and 9 and 10 and 8
  Fig Recall: 2 and 4 and 7 and 0 and 6 and 5 and 11 and 8
  TMT-A: 98 and 74 and 60 and 47 and 28 and 43 and 103 and 33 and 58
  TMT-B: 240 and 283 and 160 and 205 and 100 and 77 and 141 and 80 and 132
  WMS delayed recall: 5 and 0 and 4 and 14 and 30 and 7 and 28 and 2
[4]; Day 28, N=8
  Clock (Clock drawing test), mean: 1.6
  Fig Draw (Figure Drawing test), mean: 10.8
  Fig Recall (Figure Recall test), mean: 6.9
  TMT-A (Trail Making Test A), mean: 58.4
  TMT-B (Trail Making Test B), mean: 137.5
  WMS delayed recall (Wechsler Memory Scale), mean: 12.8
[4]; Day 28
  Clock: 4.0 and 2.0 and 1.0
  Fig Draw: 11 and 9
  Fig Recall: 0 and 6 and 5 and 11 and 9 and 4
  TMT-A: 98 and 51 and 60 and 36 and 50 and 86 and 26
  TMT-B: 270 and 115 and 127 and 87 and 80 and 155 and 62 and 204
  WMS delayed recall: 2 and 0 and 10 and 9 and 34 and 14 and 27 and 6
[4]; Day 56, N=9
  Fig Draw (Figure Drawing test), mean: 10.9
  Fig Recall (Figure Recall test), mean: 7.4
  TMT-A (Trail Making Test A), mean: 53.9
  TMT-B (Trail Making Test B), mean: 121.9
  WMS delayed recall (Wechsler Memory Scale), mean: 15.0
[4]; Day 56
  Clock: 4.0 and 2.0 and 1.0 and 3.0
  Fig Draw: 11 and 10
  Fig Recall: 0 and 4 and 7 and 2 and 10 and 11
  TMT-A: 70 and 79 and 45 and 88 and 28 and 40 and 51 and 30 and 54
  TMT-B: 238 and 116 and 128 and 182 and 72 and 86 and 119 and 64 and 92
  WMS delayed recall: 3 and 0 and 15 and 30 and 23 and 39 and 10
Aβ 1-40, Aβ 1-42
  Aβ42, individual patients: 350 pg/mL and 512 pg/mL and 223 pg/mL and 748 pg/mL and 456 pg/mL and 595 pg/mL and 670 pg/mL and 791 pg/mL and 820 pg/mL
  Ratio Aβ42/40, individual patients: 0.033 and 0.050 and 0.026 and 0.042 and 0.036 and 0.045 and 0.059 and 0.056 and 0.047

— publication PMC12053642, “Oral PRI-002 treatment in patients with MCI or mild AD: a randomized, double-blind phase 1b trial” (Nature Communications, 2025)
